{"source": "patent US8663639B2", "about": "“Formulations for treating ocular diseases and conditions” (Santen Pharmaceutical Co., Ltd., priority 2005, dated 2014)", "assay": "Topical administration (eye drops) of formulation #340, rapamycin levels in blood, cornea, retina choroid, sclera and vitreous (Tables 3-6)", "assay_type": "in vivo", "conditions": "rabbit, formulation #340 topical; for concentration at 8 day / concentration at 10 day / concentration at 12 day / concentration at 14 day: Group III (two drops once a day on both eyes for 6 days)", "note": "Where two headings read alike, the source gives them in different places.", "protocol": "Both eyes (or one eye depending on the study) of each animal received one or two drops (40 μl per drop) of the studied formulations using a calibrated pipette on day 0 (day of dosing).\nFor Tables 3-6, the solution of Example 46 (formulation #340) was administered two drops twice a day on both eyes, one time for Group I, two drops once a day on one eye, one time for Group II, and two drops once a day on both eyes for 6 days in Group III. In Group II, the right eye (OD) but not the left eye (OS) received eye drops. In a further study, one drop of the formulation #340 (40 μL containing 880 μg rapamycin) was administered on day zero.", "data": [{"smiles": "CO[C@H]1C[C@@H]2CC[C@@H](C)[C@@](O)(O2)C(=O)C(=O)N2CCCC[C@H]2C(=O)O[C@H]([C@H](C)C[C@@H]2CC[C@@H](O)[C@H](OC)C2)CC(=O)[C@H](C)/C=C(\\C)[C@@H](O)[C@@H](OC)C(=O)[C@H](C)C[C@H](C)/C=C/C=C/C=C/1C", "note": "[Rapamycin, rapamycin]", "values": [{"measurement": "concentration at 1 day", "setting": "sclera, 2 drops (40 μl per drop) on one eye (right eye, OD), Group II (two drops once a day on one eye, one time), OD, day 1, n = 1, read-out: Rapamycin level, sclera", "result": 421, "unit": "ng/g"}, {"measurement": "concentration at 2 day", "setting": "sclera, 2 drops (40 μl per drop) on one eye (right eye, OD), Group II (two drops once a day on one eye, one time), OD, day 2, n = 1, read-out: Rapamycin level, sclera", "result": 1350, "unit": "ng/g"}, {"measurement": "concentration at 3 day", "setting": "sclera, 2 drops (40 μl per drop) on one eye (right eye, OD), Group II (two drops once a day on one eye, one time), OD, day 3, n = 1, read-out: Rapamycin level, sclera", "result": 541, "unit": "ng/g"}, {"measurement": "concentration at 1 day", "setting": "sclera, 2 drops (40 μl per drop) on one eye (right eye, OD), Group II (two drops once a day on one eye, one time), OS, day 1, n = 1, read-out: Rapamycin level, sclera", "result": 34.2, "unit": "ng/g"}, {"measurement": "concentration at 2 day", "setting": "sclera, 2 drops (40 μl per drop) on one eye (right eye, OD), Group II (two drops once a day on one eye, one time), OS, day 2, n = 1, read-out: Rapamycin level, sclera", "result": 144, "unit": "ng/g"}, {"measurement": "concentration at 3 day", "setting": "sclera, 2 drops (40 μl per drop) on one eye (right eye, OD), Group II (two drops once a day on one eye, one time), OS, day 3, n = 1, read-out: Rapamycin level, sclera", "result": 104, "unit": "ng/g"}, {"measurement": "concentration at 8 day", "setting": "sclera, 2 drops (40 μl per drop) per eye, both eyes, day 8, n = 2, read-out: Rapamycin level, sclera", "result": 895, "unit": "ng/g"}, {"measurement": "concentration at 10 day", "setting": "sclera, 2 drops (40 μl per drop) per eye, both eyes, day 10, n = 2, read-out: Rapamycin level, sclera", "result": 613, "unit": "ng/g"}, {"measurement": "concentration at 12 day", "setting": "sclera, 2 drops (40 μl per drop) per eye, both eyes, day 12, n = 2, read-out: Rapamycin level, sclera", "result": 131, "unit": "ng/g"}, {"measurement": "concentration at 14 day", "setting": "sclera, 2 drops (40 μl per drop) per eye, both eyes, day 14, n = 2, read-out: Rapamycin level, sclera", "result": 420, "unit": "ng/g"}, {"measurement": "concentration at 1 day", "setting": "sclera, 2 drops (40 μl per drop) per eye, both eyes, twice a day, Group I (two drops twice a day on both eyes, one time), day 1, n = 2, read-out: Rapamycin level, sclera", "result": 90.8, "unit": "ng/g"}, {"measurement": "concentration at 2 day", "setting": "sclera, 2 drops (40 μl per drop) per eye, both eyes, twice a day, Group I (two drops twice a day on both eyes, one time), day 2, n = 2, read-out: Rapamycin level, sclera", "result": 751, "unit": "ng/g"}, {"measurement": "concentration at 3 day", "setting": "sclera, 2 drops (40 μl per drop) per eye, both eyes, twice a day, Group I (two drops twice a day on both eyes, one time), day 3, n = 2, read-out: Rapamycin level, sclera", "result": 351, "unit": "ng/g"}, {"measurement": "concentration at 1 day", "setting": "vitreous, 2 drops (40 μl per drop) on one eye (right eye, OD), Group II (two drops once a day on one eye, one time), OD, day 1, n = 1, read-out: Rapamycin level, vitreous", "result": 2.06, "unit": "ng/mL"}, {"measurement": "concentration at 2 day", "setting": "vitreous, 2 drops (40 μl per drop) on one eye (right eye, OD), Group II (two drops once a day on one eye, one time), OD, day 2, n = 1, read-out: Rapamycin level, vitreous", "result": 5.01, "unit": "ng/mL"}, {"measurement": "concentration at 3 day", "setting": "vitreous, 2 drops (40 μl per drop) on one eye (right eye, OD), Group II (two drops once a day on one eye, one time), OD, day 3, n = 1, read-out: Rapamycin level, vitreous", "result": 3.96, "unit": "ng/mL"}, {"measurement": "concentration at 1 day", "setting": "vitreous, 2 drops (40 μl per drop) on one eye (right eye, OD), Group II (two drops once a day on one eye, one time), OS, day 1, n = 1, read-out: Rapamycin level, vitreous", "result": 1, "unit": "ng/mL"}, {"measurement": "concentration at 2 day", "setting": "vitreous, 2 drops (40 μl per drop) on one eye (right eye, OD), Group II (two drops once a day on one eye, one time), OS, day 2, n = 1, read-out: Rapamycin level, vitreous", "result": 2.95, "unit": "ng/mL"}, {"measurement": "concentration at 3 day", "setting": "vitreous, 2 drops (40 μl per drop) on one eye (right eye, OD), Group II (two drops once a day on one eye, one time), OS, day 3, n = 1, read-out: Rapamycin level, vitreous", "result": 4, "unit": "ng/mL"}, {"measurement": "concentration at 8 day", "setting": "vitreous, 2 drops (40 μl per drop) per eye, both eyes, day 8, n = 2, read-out: Rapamycin level, vitreous", "result": 19.7, "unit": "ng/mL"}, {"measurement": "concentration at 10 day", "setting": "vitreous, 2 drops (40 μl per drop) per eye, both eyes, day 10, n = 2, read-out: Rapamycin level, vitreous", "result": 7.9, "unit": "ng/mL"}, {"measurement": "concentration at 12 day", "setting": "vitreous, 2 drops (40 μl per drop) per eye, both eyes, day 12, n = 2, read-out: Rapamycin level, vitreous", "result": 1.46, "unit": "ng/mL"}, {"measurement": "concentration at 14 day", "setting": "vitreous, 2 drops (40 μl per drop) per eye, both eyes, day 14, n = 2, read-out: Rapamycin level, vitreous", "result": 5.66, "unit": "ng/mL"}, {"measurement": "concentration at 1 day", "setting": "vitreous, 2 drops (40 μl per drop) per eye, both eyes, twice a day, Group I (two drops twice a day on both eyes, one time), day 1, n = 2, read-out: Rapamycin level, vitreous", "result": 1.24, "unit": "ng/mL"}, {"measurement": "concentration at 2 day", "setting": "vitreous, 2 drops (40 μl per drop) per eye, both eyes, twice a day, Group I (two drops twice a day on both eyes, one time), day 2, n = 2, read-out: Rapamycin level, vitreous", "result": 5.41, "unit": "ng/mL"}, {"measurement": "concentration at 3 day", "setting": "vitreous, 2 drops (40 μl per drop) per eye, both eyes, twice a day, Group I (two drops twice a day on both eyes, one time), day 3, n = 2, read-out: Rapamycin level, vitreous", "result": 3.03, "unit": "ng/mL"}]}]}
